From patent publication US12552757B2, “NRF2-activating compound” (SENJU PHARMACEUTICAL CO., LTD., priority 2019, dated 2026) come the findings set out here.

Data set [1] addresses T1, binding between NRF2 and KEAP1 (Homo sapiens, UniProt Q14145).
T1 construct: expressed in transfected cells; host or cells: HCE-T cells; each protein was expressed separately, and the two cell lysates were mixed in the well
The data set is described as follows: Measurement 1 of Nrf2 activating action (binding assay): BRET assay of inhibition of the binding between NRF2 and KEAP1. The conditions noted are these: 50% binding inhibitory concentration, NanoLuc-NRF2 / KEAP1-HaloTag cell lysates. The procedure: Compounds 1 to 53 produced in the Examples were used as test substances.
The inhibitory activity of each compound on the binding between NRF2 and KEAP1 was measured by bioluminescence resonance energy transfer (BRET) assay. A plasmid having human NRF2 (Original Clone ID: ha01449s1) sequence fused with NanoLuc (19 kDa, Promega) at the N-terminal was transduced into HCE-T cells using FuGENE HD (Promega). 48 hours after transduction, the cell lysate was collected and used as an NRF2-expressing cell lysate. A plasmid having human KEAP1 (Original Clone ID: cs00328) sequence fused with HaloTag (33 kDa, Promega) at the C-terminal was transduced into HCE-T cells using FuGENE HD (Promega). After 24 hours, HaloTag Nano BRET 618 Ligand (Promega) was added to the medium. The cell lysate cultured for 24 hours after the addition was used as a KEAP1-expressing cell lysate.
The NRF2-expressing cell lysate and the KEAP1-expressing cell lysate were adjusted so that the luminescence and fluorescence intensities per well were constant. Tables 1 and 2 show the formulation of each reaction solution.
Each test substance at a concentration 100 times higher than the test concentration was dissolved in dimethylsulfoxide for adjustment. 49 μL of KEAP1 solution was added to a 96-well polystyrene microplate (FALCON) to which 1 μL of each test substance solution was added, followed by incubation for 15 minutes. Then, 50 μL of NRF2 solution was added to the above solution, followed by incubation for 1 hour. To measure the binding between NRF2 and KEAP1, NanoBRET Nano-Glo Substrate (Promega) diluted with Opti-Mem (Thermo Fisher Scientific) was added, followed by shaking for 30 seconds. Then, luminescence and fluorescence were measured using the GloMax Discover System (Promega). A 495-nm short pass filter and a 600-nm long pass filter were respectively used to measure donor and acceptor emission values. A value obtained by dividing the acceptor emission value by the donor emission value was regarded as BRET value. A BRET value when the compound was not added, and a BRET value when the KEAP1 solution was not added were respectively used as binding rates of 100% and 0%, and the binding rate when the compound was added was calculated. Further, using this binding rate, the 50% binding inhibitory activity concentration (IC50) was calculated from the following formula: IC50(M)=10^(LOG(A/B)×(50−C)/(D−C)+LOG(B)) • A: higher concentration out of 2 close concentrations across the inhibition rate of 50% • B: lower concentration out of 2 close concentrations across the inhibition rate of 50% • C: inhibition rate at B • D: inhibition rate at A
Background: Bioluminescence resonance energy transfer reports proximity on the nanometre scale.

A short description of data set [2]: Measurement of metabolic stability in human liver microsomes. In kind it is in vitro ADME. The conditions noted are these: residual ratio of test compound after 30 minutes at 37° C. with human liver microsome, LC/MS/MS. As to the method: 1 mmol/L DMSO solutions of the compounds produced in the Examples were prepared. Each of the 1 mmol/L DMSO solutions was diluted with acetonitrile to 10 μmol/L, and then diluted with a 6.5 mmol/L Q-NADPH solution to 200 nmol/L. 50 μL of each solution was added to the reaction group and the non-reaction group. 50 μL of a 0.2 mg protein/mL human liver microsome (Mixed Gender, Pool of 50 livers; XenoTech, LLC) solution was added to the reaction group, followed by incubation at 37° C. for 30 minutes with shaking. After 400 μL of methanol was added to the non-reaction group, 50 μL of a 0.2 mg protein/mL human liver microsome solution was added to adjust the formulation. After incubation in the reaction group, 400 μL of methanol was added to stop the reaction. The samples of the reaction group and non-reaction group were allowed to stand at −20° C. for about 30 minutes, followed by centrifugation at 4° C. at 3000 rpm for about 10 minutes. The supernatant was analyzed using LC/MS/MS, and the residual ratio of the test compound was calculated from the peak area value of the test compound using the following formula. The measurement was carried out using the following devices: HPLC system: LC-20A-Series High Performance Liquid Chromatograph (Shimadzu Corporation) and mass spectrometer: API 4000 (AB Sciex Pte. Ltd.), or using equivalent devices. Residual ratio (%)=(peak area value of test compound in reaction group/peak area value of test compound in non-reaction group)×100 Results
A general note: Liver microsomes are vesicles of endoplasmic reticulum, rich in cytochrome P450 enzymes.

The structures appear in SMILES notation.

T1 sequence (Q14145 whole entry): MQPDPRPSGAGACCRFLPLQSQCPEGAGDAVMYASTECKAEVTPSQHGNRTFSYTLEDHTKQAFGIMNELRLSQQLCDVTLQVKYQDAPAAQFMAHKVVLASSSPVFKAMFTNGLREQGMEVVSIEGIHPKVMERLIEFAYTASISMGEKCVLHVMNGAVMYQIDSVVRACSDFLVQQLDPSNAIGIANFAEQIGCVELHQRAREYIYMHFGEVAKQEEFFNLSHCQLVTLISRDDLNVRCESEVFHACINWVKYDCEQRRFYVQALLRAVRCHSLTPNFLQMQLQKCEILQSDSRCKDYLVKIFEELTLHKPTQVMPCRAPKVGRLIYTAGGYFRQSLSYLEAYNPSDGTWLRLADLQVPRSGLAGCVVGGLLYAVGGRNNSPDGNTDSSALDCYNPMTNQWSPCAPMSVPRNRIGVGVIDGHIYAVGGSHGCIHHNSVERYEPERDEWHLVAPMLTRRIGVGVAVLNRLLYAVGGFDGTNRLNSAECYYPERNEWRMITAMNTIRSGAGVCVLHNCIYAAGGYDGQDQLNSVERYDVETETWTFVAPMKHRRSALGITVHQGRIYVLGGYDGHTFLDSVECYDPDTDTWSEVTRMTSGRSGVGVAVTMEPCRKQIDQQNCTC

As to `CC[C@@H]1CN(Cc2cc(C(CC(=O)O)c3cc(C)c(C(=O)NC)o3)ccc2C)S(=O)(=O)c2ccccc2O1` (stereo partly drawn) [Compound 31, 3-(3-{[(R)-4-ethyl-1,1-dioxide-3,4-dihydro-2H-benzo[b][1,4,5]oxathiazepin-2-yl]methyl}-4-methylphenyl)-3-[4-methyl-5-(methylcarbamoyl)furan-2-yl]propanoic acid], the IC50 in data set [1] was found to be 99 nM. For the same compound, in data set [2], the “Metabolic stability*” value is 77%.

In the case of `CC[C@@H]1CN(Cc2cc(C(CC(=O)O)c3cc4c(n3C)CCCC4=O)ccc2C)S(=O)(=O)c2ccccc2O1` (stereo partly drawn) [Compound 37, 3-(3-{[(R)-4-ethyl-1,1-dioxide-3,4-dihydro-2H-benzo[b][1,4,5]oxathiazepin-2-yl]methyl}-4-methylphenyl)-3-(1-methyl-4-oxo-4,5,6,7-tetrahydro-1H-indol-2-yl)propanoic acid], in data set [1], the IC50 amounted to 0.16 nM. Also, in data set [2], the “Metabolic stability*” value was found to be 89%.

In data set [1], `CC[C@@H]1CN(Cc2cc(C(CC(=O)O)c3nc(C)c(C(C)=O)s3)ccc2C)S(=O)(=O)c2ccccc2O1` (stereo partly drawn) [Compound 41, 3-(5-acetyl-4-methylthiazol-2-yl)-3-(3-[{(R)-4-ethyl-1,1-dioxide-3,4-dihydro-2H-benzo[b][1,4,5]oxathiazepin-2-yl]methyl}-4-methylphenyl) propanoic acid] yielded an IC50 of 3.3 nM. The “Metabolic stability*” value in data set [2] turned out to be 65%.

For the compound `CC[C@@H]1CN(Cc2cc(C(CC(=O)O)c3c(C)c(C(C)=O)c(C)n3C)ccc2C)S(=O)(=O)c2ccccc2O1` (stereo partly drawn) [Compound 35, 3-(4-acetyl-1,3,5-trimethyl-1H-pyrrol-2-yl)-3-(3-{[(R)-4-ethyl-1,1-dioxide-3,4-dihydro-2H-benzo[b][1,4,5]oxathiazepin-2-yl]methyl}-4-methylphenyl) propanoic acid], the IC50 in data set [1] stood at 3.9 nM. For the same compound, the “Metabolic stability*” value in data set [2] was 39%.

As for `CC[C@@H]1CN(Cc2cc(C(CC(=O)O)c3ccc(C(=O)N4CCCC4)o3)ccc2C)S(=O)(=O)c2ccccc2O1` (stereo partly drawn) [Compound 28, 3-(3-{[(R)-4-ethyl-1,1-dioxide-3,4-dihydro-2H-benzo[b][1,4,5]oxathiazepin-2-yl]methyl}-4-methylphenyl)-3-[5-(pyrrolidine-1-carbonyl)furan-2-yl]propanoic acid], the IC50 in data set [1] stood at 19 nM. Also, in data set [2], the “Metabolic stability*” value is recorded as 67%.

Turning to `CC[C@@H]1CN(Cc2cc(C(c3ccc(C(C)=O)o3)C(C)C(=O)O)ccc2C)S(=O)(=O)c2ccccc2O1` (stereo partly drawn) [Compound 24, 3-(5-acetylfuran-2-yl)-3-(3-{[(R)-4-ethyl-1,1-dioxide-3,4-dihydro-2H-benzo[b][1,4,5]oxathiazepin-2-yl]methyl}-4-methylphenyl)-2-methylpropanoic acid], the IC50 in data set [1] stood at 0.83 nM. Moreover, the “Metabolic stability*” value in data set [2] is on record as 72%.

On to `CC[C@@H]1CN(Cc2cc(C(CC(=O)O)c3ncc(C(C)=O)s3)ccc2C)S(=O)(=O)c2ccccc2O1` (stereo partly drawn) [Compound 40, 3-(5-acetylthiazol-2-yl)-3-(3-{[(R)-4-ethyl-1,1-dioxide-3,4-dihydro-2H-benzo[b][1,4,5]oxathiazepin-2-yl]methyl}-4-methylphenyl)propanoic acid], for which, in data set [1], the IC50 came out at 2.6 nM. Also, the “Metabolic stability*” value in data set [2] was determined as 69%.

Compound `CC[C@@H]1CN(Cc2cc(C(CC(=O)O)c3ccc(C(=O)NC)o3)ccc2C)S(=O)(=O)c2ccccc2O1` (stereo partly drawn) [Compound 26, 3-(3-{[(R)-4-ethyl-1,1-dioxide-3,4-dihydro-2H-benzo[b][1,4,5]oxathiazepin-2-yl]methyl}-4-methylphenyl)-3-[5-(methylcarbamoyl)furan-2-yl]propanoic acid] had an IC50 in data set [1] of 17 nM. Further, in data set [2], the “Metabolic stability*” value amounted to 93%.

Turning to `CC[C@@H]1CN(Cc2cc(C(CC(=O)O)c3cc4c(s3)C(=O)NC4)ccc2C)S(=O)(=O)c2ccccc2O1` (stereo partly drawn) [Compound 38, 3-(3-{[(R)-4-ethyl-1,1-dioxide-3,4-dihydro-2H-benzo[b][1,4,5]oxathiazepin-2-yl]methyl}-4-methylphenyl)-3-(6-oxo-5,6-dihydro-4H-thieno[2,3-c]pyrrol-2-yl) propanoic acid], the IC50 in data set [1] worked out at 0.22 nM. Further, the “Metabolic stability*” value in data set [2] worked out at 61%.

Take `CC[C@@H]1CN(Cc2cc(C(CC(=O)O)c3ccc(C(C)=O)o3)ccc2C)S(=O)(=O)c2ccccc2O1` (stereo partly drawn) [Compound 25, 3-(5-acetylfuran-2-yl)-3-(3-{[(R)-4-ethyl-1,1-dioxide-3,4-dihydro-2H-benzo[b][1,4,5]oxathiazepin-2-yl]methyl}-4-methylphenyl)propanoic acid]: in data set [1], the IC50 came out at 3.8 nM. Also, in data set [2], the “Metabolic stability*” value is on record as 72%.

Compound `CC[C@@H]1CN(Cc2cc(C(CC(=O)O)c3ccc(S(N)(=O)=O)s3)ccc2C)S(=O)(=O)c2ccccc2O1` (stereo partly drawn) [Compound 18, 3-(3-{[(R)-4-ethyl-1,1-dioxide-3,4-dihydro-2H-benzo[b][1,4,5]oxathiazepin-2-yl]methyl}-4-methylphenyl)-3-(5-sulfamoylthiophen-2-yl)propanoic acid] had a 50% inhibitory concentration (IC50) in data set [1] of 35 nM. For the same compound, the “Metabolic stability*” value in data set [2] was 40%.

In data set [1], `CC[C@@H]1CN(Cc2cc(C(CC(=O)O)c3cncs3)ccc2C)S(=O)(=O)c2ccccc2O1` (stereo partly drawn) [Compound 39, 3-(3-{[(R)-4-ethyl-1,1-dioxide-3,4-dihydro-2H-benzo[b][1,4,5]oxathiazepin-2-yl]methyl}-4-methylphenyl)-3-(thiazol-5-yl)propanoic acid] gave a half-maximal inhibitory concentration (IC50) of 3.8 nM. Also, the “Metabolic stability*” value in data set [2] was 89%.

With `CC[C@@H]1CN(Cc2cc(C(CC(=O)O)c3ccc(C(C)=O)n3CC)ccc2C)S(=O)(=O)c2ccccc2O1` (stereo partly drawn) [Compound 34, 3-(5-acetyl-1-ethyl-1H-pyrrol-2-yl)-3-(3-{[(R)-4-ethyl-1,1-dioxide-3,4-dihydro-2H-benzo[b][1,4,5]oxathiazepin-2-yl]methyl}-4-methylphenyl)propanoic acid], the IC50 in data set [1] is 47 nM. Moreover, in data set [2], the “Metabolic stability*” value amounted to 54%.

With `CC[C@@H]1CN(Cc2cc(C(CC(=O)O)c3cc(C#N)n(C)c3)ccc2C)S(=O)(=O)c2ccccc2O1` (stereo partly drawn) [Compound 36, 3-(5-cyano-1-methyl-1H-pyrrol-3-yl)-3-(3-{[(R)-4-ethyl-1,1-dioxide-3,4-dihydro-2H-benzo[b][1,4,5]oxathiazepin-2-yl]methyl}-4-methylphenyl)propanoic acid], in data set [1], the half-inhibitory concentration (IC50) came to 2.5 nM. Besides, the “Metabolic stability*” value in data set [2] turned out to be 29%.

In the case of `CC[C@@H]1CN(Cc2cc(C(CC(=O)O)c3ccc(C(C)=O)n3C)ccc2C)S(=O)(=O)c2ccccc2O1` (stereo partly drawn) [Compound 33, 3-(5-acetyl-1-methyl-1H-pyrrol-2-yl)-3-(3-{[(R)-4-ethyl-1,1-dioxide-3,4-dihydro-2H-benzo[b][1,4,5]oxathiazepin-2-yl]methyl}-4-methylphenyl)propanoic acid], the IC50 in data set [1] was 0.3 nM. In data set [2], the “Metabolic stability*” value is 62%.

Regarding `CC[C@@H]1CN(Cc2cc(C(CC(=O)O)c3ccc(C(=O)N(C)C)o3)ccc2C)S(=O)(=O)c2ccccc2O1` (stereo partly drawn) [Compound 27, 3-[5-(dimethylcarbamoyl)furan-2-yl]-3-(3-{[(R)-4-ethyl-1,1-dioxide-3,4-dihydro-2H-benzo[b][1,4,5]oxathiazepin-2-yl]methyl}-4-methylphenyl)propanoic acid], the IC50 in data set [1] came out at 20 nM. Besides, the “Metabolic stability*” value in data set [2] is on record as 85%.

The term IC50 denotes the midpoint of a concentration-inhibition curve. Lower therefore signals higher potency.
